Assay results from patent US11485713B2, “Androgen receptor modulators and methods for their use” (ESSA Pharma, Inc., priority 2018, dated 2022).

Columns and labels:
LNCaP ARE-Luc = assay: Luciferase assay in LNCaP cell lysates (LNCaP ARE-Luc); assay type: cell-based; conditions: Homo sapiens, Firefly Luciferase Assay System, read-out: LNCaP ARE-Luc % inhibition IC50 Ranges
Protocol: Lysates were thawed on ice then collected into V-bottom 96-well tissue culture plates. Lysates were centrifuged at 4° C. for 5 minutes at 4000 rpm. To measure luminescence of LNCaP cell lysates the Firefly Luciferase Assay System (Promega) was employed, according to manufacturer's protocol. Relative luminescence units (RLU) in cell lysates were detected for 10 seconds using Promega GoMax-Multi Detection Luminometer (Promega).
Statistical analyses were performed using GraphPad Prism (Version 6.01 for Windows; La Jolla, Calif., USA). Comparisons between treatment and control groups were compared using Two-Way ANOVA with post-hoc Dunnett's and Tukey's tests. Differences were considered statistically significant at P values less than 0.05. Densitometric quantification of relative AR levels was determined by Image.

[1] = Microsomal stability assay, HLM; assay type: in vitro ADME; conditions: human, pH 7.4, 1 μM test compound, 0.5 mg/mL liver microsomes protein, 37° C., 0-60 min, read-out: HLM +/− NADPH: Clint (μL/min/mg protein)
Description: Microsomal Stability Assay: Microsomal stability assay is a widely used in vitro model to characterize the metabolic conversion by phase I enzymes, such as cytochrome P450 (CYP) enzymes. Since metabolism is known to be highly variable in different species, microsomal stability assay is commonly run in multiple species. Metabolic stability of testing compound can be evaluated using human, rat, mouse, or other animal liver or intestine microsomes to predict intrinsic clearance.
The assay was carried out in 96-well microtiter plates at 37° C. Reaction mixtures (25 μL) contained a final concentration of 1 μM test compound, 0.5 mg/mL liver microsomes protein, and 1 mM NADPH and/or 1 mM UDPGA (with alamethicin) in 100 mM potassium phosphate, pH 7.4 buffer with 3 mM MgCl2. The incubation was done with N=1, but duplicate incubation at each time point can be prepared if necessary. At each of the time points (for example, 0, 15, 30, and 60 minutes), 150 μL of quench solution (100% acetonitrile with 0.1% formic acid) with internal standard was transferred to each well. Besides the zero minute controls, mixtures containing the same components except the NADPH can also be prepared as the negative control. Verapamil was included as a positive control to verify assay performance. Plates were sealed, vortexed, and centrifuged at 4° C. for 15 minutes at 4000 rpm. The supernatant is transferred to fresh plates for LC/MS/MS analysis.
Summarized conditions: [Compound]=1 μM, [LM]=0.5 mg/mL, [NADPH]=1 mM and/or [UDPGA]=1 mM, Buffer=100 mM Potassium Phosphate, pH 7.4 with 3 mM MgCl2, Time=0, 15, 30, and 60 min, and Temperature=37° C.
All samples were analyzed on LC/MS/MS using an AB Sciex API 4000 instrument, coupled to a Shimadzu LC-20AD LC Pump system. Analytical samples were separated using a Waters Atlantis T3 dC18 reverse phase HPLC column (20 mm×2.1 mm) at a flow rate of 0.5 mL/min. The mobile phase consisted of 0.1% formic acid in water (solvent A) and 0.1% formic acid in 100% acetonitrile (solvent B).
The extent of metabolism is calculated as the disappearance of the test compound, compared to the 0-min time incubation. Initial rates are calculated for the compound concentration and used to determine half-life (t½) values and subsequently, the intrinsic clearance (Clint). Clint=(0.693)(1/t½ (min))(g of liver/kg of body weight)(mL incubation/mg of microsomal protein)(45 mg of microsomal protein/g of liver weight)

| SMILES | IC50 (LNCaP ARE-Luc) [nM] | microsomal CLint at 1 μM [1] [µL/min/mg] |
| --- | --- | --- |
| CC(C)(c1ccc(OC(F)(F)C(=O)CNS(C)(=O)=O)cc1)c1cc(Cl)c(OCCCCl)c(Cl)c1 [Compound A99, N-(3-(4-(2-(3,5-dichloro-4-(3-chloropropoxy)phenyl)propan-2-yl)phenoxy)-3,3-difluoro-2-oxopropyl)methanesulfonamide] | 100 to 250 | – |
| CC(C)(c1ccc(OCC(=O)CNS(C)(=O)=O)cc1)c1cc(Cl)c(OCc2ccccc2Cl)c(Cl)c1 [Compound A79] | ≥ 250 | ≥ 48 |
| COc1cc(OCCCCl)ccc1C(C)(C)c1ccc(OCC(=O)CNS(C)(=O)=O)cc1 [Compound A4] | ≥ 250 | ≥ 48 |
| CC(O)(CCl)COc1c(Cl)cc(C(C)(C)c2ccc(OCC(=O)CS(C)(=O)=O)cc2)cc1Cl (stereo not drawn) [Compound A53, 1-(4-(2-(3,5-dichloro-4-(3-chloro-2-hydroxy-2-methypropoxy)phenyl)propan-2-yl)phenoxy)-3-(methylsulfonyl)propan-2-one] | ≥ 250 | – |
| CS(=O)(=O)NCC(=O)COc1ccc(CCc2cc(Cl)c(OCC(O)CCl)c(Cl)c2)cc1 (stereo not drawn) [Compound A75, N-(3-(4-(3,5-dichloro-4-(3-chloro-2-hydroxypropoxy)phenethyl)phenoxy)-2-oxopropyl)methanesulfonamide] | 100 to 250 | ≥ 48 |
| CC(C)(c1ccc(OCC(=O)N2CCN(S(C)(=O)=O)CC2)cc1)c1cc(Cl)c(OCCCCl)c(Cl)c1 [Compound A44] | ≥ 250 | 12 to 48 |
| CC(C)(c1ccc(OCC(=O)CNS(C)(=O)=O)c(F)c1)c1cc(Cl)c(OCCCCl)c(Cl)c1 [Compound A48] | 100 to 250 | ≥ 48 |
| CC(C)(c1ccc(OC(F)(F)C(=O)C(N)=O)cc1)c1cc(Cl)c(OCCCCl)c(Cl)c1 [Compound A92] | ≥ 250 | – |
| CCOC(=O)CC(=O)C(F)(F)Oc1ccc(C(C)(C)c2cc(Cl)c(OCCCCl)c(Cl)c2)cc1 [Compound A101] | ≥ 250 | – |
| CC(C)(c1ccc(OCC(=O)CNS(C)(=O)=O)cc1)c1cc(Cl)c(NCCCCl)c(Cl)c1 [Compound A35] | 100 to 250 | ≥ 48 |
| CC(=O)Oc1ccc(C(C)(C)c2cc(Cl)c(OCCCCl)c(Cl)c2)cc1 [Compound A103] | < 100 | – |
| CC(C)(c1ccc(OCC(=O)CNS(C)(=O)=O)cc1)c1ccc(OCCCCl)c(C#N)c1 [Compound A7] | < 100 | ≥ 48 |
| CC(C)(c1ccc(OCC(=O)CS(C)(=O)=O)cc1)c1cc(Cl)c(OC[C@H](O)CCl)c(Cl)c1 [A54(S), (S)-1-(4-(2-(3,5-dichloro-4-(3-chloro-2-hydroxypropoxy)phenyl)propan-2-yl)phenoxy)-3-(methylsulfonyl)propan-2-one] | ≥ 250 | – |
| CC(=O)NCC(=O)COc1ccc(C(C)(C)c2cc(Cl)c(OCCCCl)c(Cl)c2)cc1 [Compound A65] | ≥ 250 | ≥ 48 |
| CC(C)(c1ccc(NC(=O)C(=O)C(F)(F)F)cc1)c1cc(Cl)c(OCCCCl)c(Cl)c1 [Compound A93] | ≥ 250 | < 12 |
| CC(CCl)COc1c(Cl)cc(C(C)(C)c2ccc(OCC(=O)CNS(C)(=O)=O)cc2)cc1Cl (stereo not drawn) [Compound A32] | < 100 | ≥ 48 |
| CS(=O)(=O)NCC(=O)COc1ccc(C2(c3cc(Cl)c(OCCCCl)c(Cl)c3)COC2)cc1 [Compound A43, N-(3-(4-(3-(3,5-dichloro-4-(3-chloropropoxy)phenyl)oxetan-3-yl)phenoxy)-2-oxopropyl)methanesulfonamide] | < 100 | ≥ 48 |
| CC(C)(c1ccc(OCC(=O)NNS(C)(=O)=O)cc1)c1cc(Cl)c(OCCCCl)c(Cl)c1 [Compound A80] | ≥ 250 | 12 to 48 |

| SMILES | IC50 (LNCaP ARE-Luc) [nM] | microsomal CLint at 1 μM [1] [µL/min/mg] |
| --- | --- | --- |
| CC(C)(c1ccc(OCC(=O)NCCNS(C)(=O)=O)cc1)c1cc(Cl)c(OCCCCl)c(Cl)c1 [Compound A62] | ≥ 250 | 12 to 48 |
| CC(C)(c1ccc(OCCCCl)cc1)c1ccc(OCC(=O)CNS(C)(=O)=O)cc1Cl [Compound A14] | ≥ 250 | ≥ 48 |
| CC(C)(c1ccc(OCCCCl)cc1)c1ccc(OCC(=O)CNS(C)(=O)=O)c(C#N)c1 [Compound A15] | ≥ 250 | ≥ 48 |
| CN(C)C(=O)NCc1ccc(C(C)(C)c2cc(Cl)c(OCCCCl)c(Cl)c2)cc1 [Compound A47] | ≥ 250 | ≥ 48 |
| CC(C)N(c1ccc(OCC(=O)CNS(C)(=O)=O)cc1)c1cc(Cl)c(OCCCCl)c(Cl)c1 [Compound A70] | ≥ 250 | ≥ 48 |
| COC(=O)C(OC)C(O)(O)C(F)(F)Oc1ccc(C(C)(C)c2cc(Cl)c(OCCCCl)c(Cl)c2)cc1 (stereo not drawn) [Compound A97] | 100 to 250 | – |
| CC(C)(c1ccc(OC(F)(F)C(=O)CCNS(C)(=O)=O)cc1)c1cc(Cl)c(OCCCCl)c(Cl)c1 [Compound A94, N-(4-(4-(2-(3,5-dichloro-4-(3-chloropropoxy)phenyl)propan-2-yl)phenoxy)-4,4-difluoro-3-oxobutyl)methanesulfonamide] | ≥ 250 | ≥ 48 |
| CC(=O)N(CC(=O)COc1ccc(C(C)(C)c2cc(Cl)c(OCCCCl)c(Cl)c2)cc1)S(C)(=O)=O [Compound A104] | ≥ 250 | – |
| CC(=O)COc1ccc(C(C)(C)c2cc(Cl)c(OCCCCl)c(Cl)c2)cc1 [Compound A74, 1-(4-(2-(3,5-dichloro-4-(3-chloropropoxy)phenyl)propan-2-yl)phenoxy)propan-2-one] | ≥ 250 | – |
| CC(=O)C(=O)Nc1ccc(C(C)(C)c2cc(Cl)c(OCC(C)(O)CCl)c(Cl)c2)cc1 (stereo not drawn) [Compound A96] | ≥ 250 | – |
| CC(C)(c1ccc(OCC(=O)C(F)(F)F)cc1)c1cc(Cl)c(OCCCCl)c(Cl)c1 [Compound A91, 3-(4-(2-(3,5-dichloro-4-(3-chloropropoxy)phenyl)propan-2-yl)phenoxy)-1,1,1-trifluoropropan-2-one] | ≥ 250 | < 12 |
| CC(C)(c1ccc(OCC(=O)CNS(C)(=O)=O)cc1)c1ccc(OCCCCl)cc1Cl [Compound A6] | ≥ 250 | ≥ 48 |
| CC(C)(c1ccc(OCC(=O)CNS(C)(=O)=O)cc1)c1cc(Cl)c(OCc2ccc(Cl)cc2)c(Cl)c1 [Compound A38] | ≥ 250 | ≥ 48 |
| CC(O)(CCl)COc1c(Cl)cc(C(C)(C)c2ccc(NC(=O)C(=O)C(F)(F)F)cc2)cc1Cl (stereo not drawn) [Compound A95] | ≥ 250 | < 12 |
| CS(=O)(=O)NCC(=O)COc1ccc(-c2cc(Cl)c(OCCCCl)c(Cl)c2)cc1 [Compound A73, N-(3-((3′,5′-dichloro-4′-(3-chloropropoxy)-[1,1′-biphenyl]-4-yl)oxy)-2-oxopropyl)methanesulfonamide] | ≥ 250 | 12 to 48 |
| CS(=O)(=O)NCC(=O)CCOc1ccc(-c2cc(Cl)c(OCCCCl)c(Cl)c2)cc1 [Compound A76] | ≥ 250 | 12 to 48 |
| CC(C)(c1ccc(OC(F)(F)C(=O)CS(C)(=O)=O)cc1)c1cc(Cl)c(OCCCCl)c(Cl)c1 [Compound A102] | ≥ 250 | – |
| COCC(=O)C(F)(F)Oc1ccc(C(C)(C)c2cc(Cl)c(OCCCCl)c(Cl)c2)cc1 [Compound A100, 1-(4-(2-(3,5-dichloro-4-(3-chloropropoxy)phenyl)propan-2-yl)phenoxy)-1,1-difluoro-3-methoxypropan-2-one] | ≥ 250 | – |
